Data reported in patent publication US20170150719A1, “FUNGICIDAL PYRAZOLES AND THEIR MIXTURES” (E I DU PONT DE NEMOURS AND COMPANY, priority 2010, published 2017).
Marks after values point to notes of the source that are not given here.

What was measured:
Alternaria solani = experiment: Test B: tomato early blight, preventive spray on tomato seedlings, visual disease rating; details: for Test B rating (disease control) / Test B rating (% disease control): tomato early blight, 100 = 100% disease control; for Test B rating (disease control): 0 = no disease control relative to the controls; for pest or weed control at 200 µg/mL: Alternaria solani, in Solanum lycopersicum, read-out: Test B rating (disease control); for Test B rating (% disease control): preventive spray, rating without asterisk
Septoria tritici = experiment: Test F: wheat leaf blotch, preventive spray on wheat seedlings, visual disease rating; assay type: in vivo; design: Test F rating (disease control), value marked *: concentration or dose not given beside the values; pest or weed control: dose or concentration left out as unconfirmed; details: for pest or weed control at 200 µg/mL / pest or weed control: Zymoseptoria tritici; for pest or weed control / Test F rating (% disease control): preventive spray; for pest or weed control: other test suspension concentration than unmarked ratings; for Test F rating (% disease control): rating without asterisk
Source text: (§1) A hyphen (-) indicates no test results.

Septoria nodorum = experiment: Test E: Septoria glume blotch, preventive spray on wheat seedlings, visual disease rating; details: for Test E rating (disease control): Septoria glume blotch; for Test E rating (disease control) / pest or weed control at 200 µg/mL / Test E rating (% disease control): 100 = 100% disease control; for Test E rating (disease control) / pest or weed control at 200 µg/mL: 0 = no disease control relative to the controls; for pest or weed control at 200 µg/mL: Parastagonospora nodorum, in Triticum aestivum, read-out: Test E rating (disease control), Septoria glume blotch; for Test E rating (% disease control), marked * / Test E rating (% disease control): Septoria glume blotch on wheat, preventive spray; for Test E rating (% disease control), marked *: rating marked with asterisk (*), other test suspension concentration than unmarked ratings; for Test E rating (% disease control): rating without asterisk
Botrytis cinerea = experiment: Test A: tomato Botrytis, preventive spray on tomato seedlings, visual disease rating; details: for Test A rating (disease control) / pest or weed control at 200 µg/mL: 0 = no disease control relative to the controls; for pest or weed control at 200 µg/mL / pest or weed control at 40 µg/mL: Botrytis cinerea, in Solanum lycopersicum; for pest or weed control at 200 µg/mL: read-out: Test A rating (disease control), tomato Botrytis; for pest or weed control at 40 µg/mL: read-out: Test A rating (% disease control), marked *, tomato Botrytis, preventive spray, rating marked with asterisk (*), other test suspension concentration than unmarked ratings
[1] = tested on: Blumeria graminis f. sp. tritici; experiment: Test I: wheat powdery mildew, preventive spray on wheat seedlings, visual disease rating; details: for Test I rating (disease control) / pest or weed control at 200 µg/mL / Test I rating (% disease control): 100 = 100% disease control; for Test I rating (disease control) / pest or weed control at 200 µg/mL: 0 = no disease control relative to the controls; for pest or weed control at 200 µg/mL / pest or weed control at 40 µg/mL: Blumeria graminis, in Triticum aestivum; for pest or weed control at 200 µg/mL: read-out: Test I rating (disease control), wheat powdery mildew; for pest or weed control at 40 µg/mL: read-out: Test I rating (% disease control), marked *, wheat powdery mildew, preventive spray; for Test I rating (% disease control): rating without asterisk
[2] = tested on: Puccinia recondita f. sp. tritici; experiment: Test G: wheat leaf rust, spray after inoculation (curative) on wheat seedlings, visual disease rating; assay type: in vivo; details: 100 = 100% disease control; for Test G rating (disease control) / pest or weed control at 200 µg/mL: sprayed after inoculation, 0 = no disease control; for Test G rating (% disease control): spray after inoculation, rating without asterisk
Source text: as §1

[3] = tested on: Puccinia recondita f. sp. tritici; experiment: Test H: wheat leaf rust, preventive spray on wheat seedlings, visual disease rating; details: for Test H rating (disease control) / Test H rating (% disease control): wheat leaf rust; for Test H rating (disease control): sprayed the day before inoculation; for Test H rating (disease control) / pest or weed control at 200 µg/mL / Test H rating (% disease control): 100 = 100% disease control; for Test H rating (disease control) / pest or weed control at 200 µg/mL: 0 = no disease control; for pest or weed control at 200 µg/mL: read-out: Test H rating (disease control), wheat leaf rust, sprayed the day before inoculation; for pest or weed control at 40 µg/mL: read-out: Test H rating (% disease control), marked *, wheat leaf rust, preventive spray, rating marked with asterisk (*), other test suspension concentration than unmarked ratings; for Test H rating (% disease control): preventive spray, rating without asterisk
[4] = 100 = 100% disease control, 0 = no disease control relative to the controls
[5] = tomato Botrytis, 100 = 100% disease control
[6] = rating marked with asterisk (*)
[7] = rating marked with asterisk (*), other test suspension concentration than unmarked ratings
[8] = wheat powdery mildew, preventive spray

Cc1nn(C)c(Nc2c(Cl)cc(F)cc2Cl)c1-c1c(Cl)cccc1Cl [compound 115]
Test B rating (disease control) (Alternaria solani): 0% | Test F rating (disease control) (Septoria tritici; [4]): 99% | Test E rating (disease control) (Septoria nodorum): 0% | Test A rating (disease control) (Botrytis cinerea; [5]): 99% | Test I rating (disease control) ([1]; wheat powdery mildew): 93% | Test G rating (disease control) [2]: 0% | Test H rating (disease control) [3]: 99%

COc1cc(F)c(Nc2c(-c3ccc(F)cc3Cl)c(C)nn2C)c(F)c1 [Compound 3, 4-(2-chloro-4-fluorophenyl)-N-(2,6-difluoro-4-methoxyphenyl)-1,3-dimethyl-1H-pyrazol-5-amine]
pest or weed control at 200 µg/mL (Alternaria solani): 100% | pest or weed control at 200 µg/mL (Septoria tritici; [4]): 97% | pest or weed control at 200 µg/mL (Septoria nodorum): 93% | pest or weed control at 200 µg/mL (Botrytis cinerea; 100 = 100% disease control): 100% | pest or weed control at 200 µg/mL [1]: 100% | pest or weed control at 200 µg/mL [2]: 96% | pest or weed control at 200 µg/mL [3]: 100%

Cc1nn(C)c(Nc2c(F)cc(Br)cc2F)c1-c1ccc(F)cc1Cl [Compound 134, N-(4-bromo-2,6-difluorophenyl)-4-(2-chloro-4-fluorophenyl)-1,3-dimethyl-1H-pyrazol-5-amine]
pest or weed control at 200 µg/mL (Alternaria solani): 99% | pest or weed control at 200 µg/mL (Septoria tritici; [4]): 100% | pest or weed control at 200 µg/mL (Septoria nodorum): 64% | pest or weed control at 200 µg/mL (Botrytis cinerea; 100 = 100% disease control): 100% | pest or weed control at 200 µg/mL [1]: 100% | pest or weed control at 200 µg/mL [2]: 74% | pest or weed control at 200 µg/mL [3]: 100%

COc1ccc(-c2c(C)nn(C)c2Nc2c(C)cccc2Cl)c(Cl)c1 [Compound 262, 4-(2-chloro-4-methoxyphenyl)-N-(2-chloro-6-methylphenyl)-1,3-dimethyl-1H-pyrazol-5-amine]
pest or weed control (Septoria tritici; [6]): 100% | Test E rating (% disease control), marked * (Septoria nodorum): 0* % | pest or weed control at 40 µg/mL (Botrytis cinerea): 97% | pest or weed control at 40 µg/mL [1, 7]: 79% | pest or weed control at 40 µg/mL [3]: 85%

COc1ccc(-c2c(C)nn(C)c2Nc2c(C)cccc2Br)c(F)c1 [Compound 258, N-(2-bromo-6-methylphenyl)-4-(2-fluoro-4-methoxyphenyl)-1,3-dimethyl-1H-pyrazol-5-amine]
pest or weed control (Septoria tritici; [6]): 100% | Test E rating (% disease control), marked * (Septoria nodorum): 0* % | pest or weed control at 40 µg/mL (Botrytis cinerea): 100% | pest or weed control at 40 µg/mL [1, 7]: 0% | pest or weed control at 40 µg/mL [3]: 9%

CCOc1ccc(-c2c(C)nn(C)c2Nc2ccc(F)cc2F)c(F)c1 [Compound 193]
Test B rating (% disease control) (Alternaria solani): 58% | Test F rating (% disease control) (Septoria tritici; 100 = 100% disease control): 100% | Test E rating (% disease control) (Septoria nodorum): 0% | Test I rating (% disease control) [1, 8]: 92% | Test G rating (% disease control) [2]: 0% | Test H rating (% disease control) [3]: 27%

COc1ccc(-c2c(C)nn(C)c2C(O)c2c(F)cc(Cl)cc2F)c(Cl)c1 (racemic) [compound 224]
Test B rating (% disease control) (Alternaria solani): 100% | Test F rating (% disease control) (Septoria tritici; 100 = 100% disease control): 100% | Test E rating (% disease control) (Septoria nodorum): 89% | Test I rating (% disease control) [1, 8]: 94% | Test G rating (% disease control) [2]: 54% | Test H rating (% disease control) [3]: 100%

Cc1nn(C)c(C(O)c2ccc(F)cc2Br)c1-c1ccc(F)cc1Cl (stereo not drawn) [Compound 153, α-(2-bromo-4-fluorophenyl)-4-(2-chloro-4-fluorophenyl)-1,3-dimethyl-1H-pyrazole-5-methanol]
pest or weed control at 200 µg/mL (Alternaria solani): 0% | pest or weed control at 200 µg/mL (Septoria tritici; [4]): 100% | pest or weed control at 200 µg/mL (Septoria nodorum): 0% | pest or weed control at 200 µg/mL [1]: 0% | pest or weed control at 200 µg/mL [2]: 0% | pest or weed control at 200 µg/mL [3]: 96%

Cc1nn(C)c(C(O)c2ccc(C#N)cc2F)c1-c1ccc(F)cc1Cl (racemic) [compound 179]
Test B rating (% disease control) (Alternaria solani): 16% | Test E rating (% disease control) (Septoria nodorum): 0% | Test A rating (% disease control) (Botrytis cinerea; tomato Botrytis, preventive spray, 100 = 100% disease control, 0 = no control relative to controls, rating without asterisk): 96% | Test I rating (% disease control) [1, 8]: 0% | Test G rating (% disease control) [2]: 9% | Test H rating (% disease control) [3]: 99%

COc1ccc(-c2c(C)nn(C)c2Nc2c(Cl)cc(F)cc2Cl)c(F)c1 [compound 194]
Test B rating (% disease control) (Alternaria solani): 93% | Test F rating (% disease control) (Septoria tritici; 100 = 100% disease control): 100% | Test E rating (% disease control) (Septoria nodorum): 87% | Test I rating (% disease control) [1, 8]: 63% | Test G rating (% disease control) [2]: 0% | Test H rating (% disease control) [3]: 95%

COc1ccc(Oc2c(-c3ccc(F)cc3Cl)c(C)nn2C)c(F)c1 [compound 5]
Test B rating (disease control) (Alternaria solani): 100% | Test F rating (disease control), value marked * (Septoria tritici; rating marked with asterisk (*), other test condition, not explained in the text shown): 97* % | Test E rating (disease control) (Septoria nodorum): 97% | Test A rating (disease control) (Botrytis cinerea; [5]): 98% | Test I rating (disease control) ([1]; wheat powdery mildew): 99% | Test H rating (disease control) [3]: 100%

COc1ccc(-c2c(C)nn(C)c2Nc2c(C)cccc2F)c(F)c1 [Compound 259, 4-(2-fluoro-4-methoxyphenyl)-N-(2-fluoro-6-methylphenyl)-1,3-dimethyl-1H-pyrazol-5-amine]
pest or weed control (Septoria tritici; [6]): 100% | Test E rating (% disease control), marked * (Septoria nodorum): 0* % | pest or weed control at 40 µg/mL (Botrytis cinerea): 100% | pest or weed control at 40 µg/mL [1, 7]: 90% | pest or weed control at 40 µg/mL [3]: 82%

COc1ccc(-c2c(C)nn(C)c2Nc2c(C)cccc2Br)c(Cl)c1 [Compound 263, N-(2-bromo-6-methylphenyl)-4-(2-chloro-4-methoxyphenyl)-1,3-dimethyl-1H-pyrazol-5-amine]
pest or weed control (Septoria tritici; [6]): 100% | Test E rating (% disease control), marked * (Septoria nodorum): 0* % | pest or weed control at 40 µg/mL (Botrytis cinerea): 99% | Test I rating (% disease control), marked * ([1]; wheat powdery mildew, preventive spray, rating marked with asterisk (*), other test suspension concentration than unmarked ratings): 13* % | pest or weed control at 40 µg/mL [3]: 79%

Cc1nn(C)c(C(O)c2c(F)cc(F)cc2F)c1-c1ccc(F)cc1Cl (racemic) [compound 178]
Test B rating (disease control) (Alternaria solani): 33% | Test E rating (disease control) (Septoria nodorum): 0% | Test A rating (disease control) (Botrytis cinerea; [5]): 100% | Test I rating (disease control) ([1]; wheat powdery mildew): 74% | Test G rating (disease control) [2]: 98% | Test H rating (disease control) [3]: 100%

Cc1nn(C)c(C(O)c2ccc(Cl)cc2F)c1-c1ccc(F)cc1Cl (racemic) [compound 177]
Test B rating (disease control) (Alternaria solani): 0% | Test E rating (disease control) (Septoria nodorum): 0% | Test A rating (disease control) (Botrytis cinerea; [5]): 99% | Test I rating (disease control) ([1]; wheat powdery mildew): 48% | Test G rating (disease control) [2]: 0% | Test H rating (disease control) [3]: 0%

COc1ccc(-c2c(C)nn(C)c2Nc2c(F)cccc2Cl)c(F)c1 [Compound 260, N-(2-chloro-6-fluorophenyl)-4-(2-fluoro-4-methoxyphenyl)-1,3-dimethyl-1H-pyrazol-5-amine]
pest or weed control (Septoria tritici; [6]): 100% | Test E rating (% disease control), marked * (Septoria nodorum): 0* % | pest or weed control at 40 µg/mL (Botrytis cinerea): 100% | pest or weed control at 40 µg/mL [1, 7]: 90% | pest or weed control at 40 µg/mL [3]: 85%
